# “And” between values parts separate entries of the source, which are not always exact repeats. Equal entries are not always repeated.
# Experiments:
# Angiotensin II Receptor = molecular target: T1, Angiotensin II Receptor (Bos taurus, UniProt P25104); experiment: Receptor binding assay: competition of [^125 I](Sar^1,Ile^8)AngII binding to beef adrenal cortex microsomal membranes; details: 60 min, room temperature, pH 7.4
# T1 construct: The brownish tissue forming the adrenal cortex is scraped off and finely minced with scissors before homogenization; tissue local slaughter house (Maxwell-Cohen); host or cells: beef adrenal cortex, microsomal membranes (100,000×g pellet)
# T1 sequence (P25104 1-359): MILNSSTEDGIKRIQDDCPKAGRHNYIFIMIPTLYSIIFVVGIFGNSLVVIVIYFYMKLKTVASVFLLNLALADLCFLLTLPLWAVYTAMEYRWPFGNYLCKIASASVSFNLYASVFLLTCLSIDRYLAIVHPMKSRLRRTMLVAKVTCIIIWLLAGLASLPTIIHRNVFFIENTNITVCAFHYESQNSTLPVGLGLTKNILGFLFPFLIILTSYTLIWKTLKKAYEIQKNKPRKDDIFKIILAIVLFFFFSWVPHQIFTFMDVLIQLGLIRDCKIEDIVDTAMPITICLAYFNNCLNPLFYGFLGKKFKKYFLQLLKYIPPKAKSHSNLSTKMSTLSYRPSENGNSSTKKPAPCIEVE
# Description: Beef adrenals are obtained from a local slaughter house (Maxwell-Cohen). [^125 […]. 2200 Ci/mmole, is purchased from Dupont (KEN@, Boston, Mass.). All unlabeled AngII analogs, Dimethylsulfoxide (DMSO), nucleotides, bovine serum albumin (BBA) are purchased from Sigma Chemical Co., St. Louis, MO U.S.A. Approximately sixteen (16) to twenty (20) beef adrenal glands are processed as follows: fresh adrenal glands received on crushed ice are cleaned of fatty tissues and the tough membranes encapsulating the glands are removed and discarded. The brownish tissue forming the adrenal cortex is scraped off and finely minced with scissors before homogenization care is taken to avoid contamination with medullary tissue during dissection. […] Unless otherwise indicated, all subsequent operations are done at […]. […] The homogenate is centrifuged first at low speed (3,000×g) for 10 min. […] This P2 pellet is discarded and the liquid phase is carefully decanted off in clean centrifuge tubes and recentrifuged at high speed (100,000×g) for 60 min. The translucent final pellet is harvested and combined in a small volume (20-50.0 ml) of […] Tris.HCl buffer, pH 7.2. A 100 ul aliquot is withdrawn and the protein content of the preparation is determined by the Lowry's method (Lowry, O. H., Rosebrough, N. P., Parr, A. L. and Randall, R. J., Protein measurement with Folin phenol reagent. J. Biol. Chem., […], 265-275, 1951). The pelleted membrane is reconstituted in 50.0 mM Tris.HCl buffer containing 0.1 mM of phenylmethylsulfonyl fluoride (PMSF) to give approximately a protein concentration of 2.5 mg per ml of tissue suspension. […] In competition studies, experimental compounds are diluted in dimethylsulfoxide (DMSO) and added in 20 ul to wells before the introduction of tissue membranes. This concentration of DMSO is found to have no negative effects on the binding of [^125 I] ([…] to the membranes. Assays are performed in triplicate. The wells are left undisturbed for 60 min. at room temperature. Following incubation, all wells are harvested at once with a Brandel® Harvester especially designed for a 96 well plate (Brandel® Biomedical Research & Development Labs. Inc., Gaithersburg, MD, U.S.A.). The filter discs are washed with 10×1.0 ml of cold 0.9% NaCl to remove unbound ligand. Presoaking the filter sheet in 0.1% polyethyleneimine in normal saline (PEI/Saline) greatly reduces the radioactivity retained by the filter blanks. This method is routinely used. The filters are removed from the filter grid and counted in a Parkard® Cobra Gamma Counter for 1 min. (Packard Instrument Co., Downers Grove, Ill, U.S.A.). The binding data are analyzed by the non-linear interactive "LUNDON-11" program (LUNDON SOFTWARE Inc., Cleveland, OH U.S.A.).
# [1] = system: Angiotensin II (AII) vasopressor response; experiment: AII Challenge: antagonism of the angiotensin II vasopressor response in conscious SHR; format: in vivo, Spontaneously hypertensive rats (Male okamoto-Aoki SHR); details: 15 mg/kg I.V.; for Average Change / Inhibition: n = 2; for Change / Control Before AII / Response After AII: per rat
# Description: […] Conscious Male okamoto-Aoki SHR, 16-20 weeks old, weighing approximately 330 g are purchased from Charles River Labs (Wilmington, MA). Conscious rats are restrained in a supine position with elastic tape. The area at the base of the tail is locally anesthetized by subcutaneous infiltration with 2% procaine. […] The cannula is secured, heparinized (1,000 I.U./ml), sealed and the wound is closed. The animals are placed in plastic restraining cages in an upright position. The cannula is attached to a Statham P23Db pressure transducer, and pulsatile blood pressure is recorded to 10-15 minutes with a Gould Brush recorder. (Chan et al., (Drug Development Res., 18:75-94, 1989). […] Co., St. […] […] […] […] […] A compound is considered active if at 30 mg/kg i.v. it antagonized at least 50% of the response.
# [2] = AII 0.05 mcg/kg IV, 30 min post dose
# [3] = AII 0.05 mcg/kg IV, 60 min post dose
# [4] = AII 0.05 mcg/kg IV, 90 min post dose
# [5] = AII 0.05 mcg/kg IV, 120 min post dose
# [6] = AII 0.05 mcg/kg IV, 180 min post dose
# [7] = AII 0.1 mcg/kg IV, 30 min post dose
# [8] = AII 0.1 mcg/kg IV, 60 min post dose
# [9] = AII 0.1 mcg/kg IV, 90 min post dose
# [10] = AII 0.1 mcg/kg IV, 120 min post dose
# [11] = AII 0.1 mcg/kg IV, 180 min post dose
structure (smiles),measurement,setting,value
"CCCCc1nc2ccc(C3CC(C(=O)O)=NO3)cc2c(=O)n1Cc1ccc(-c2ccccc2-c2nnn[nH]2)cc1 (stereo not shown) [Example 28, 5-[2-butyl-3,4-dihydro-4-oxo-3-[[2'-(lH-tetrazol-5-yl)[1,1'-biphenyl]-4-yl]-methyl]-6-quinazolinyl]-4,5-dihydro-3-isoxazolecarboxylic acid]",IC50,Angiotensin II Receptor,600 nM
same,Average Change,[1]; [2],10 mmhg
same,Inhibition,[1]; [2],75%
same,Change,[1]; [2],10 mmhg
same,Control Before AII,[1]; [2],185 mmhg and 167 mmhg
same,Response After AII,[1]; [2],195 mmhg and 177 mmhg
same,Average Change,[1]; [3],2.5 mmhg
same,Inhibition,[1]; [3],94%
same,Change,[1]; [3],5 mmhg and 0 mmhg
same,Control Before AII,[1]; [3],170 mmhg and 165 mmhg
same,Response After AII,[1]; [3],175 mmhg and 165 mmhg
same,Average Change,[1]; [4],10 mmhg
same,Inhibition,[1]; [4],75%
same,Change,[1]; [4],10 mmhg
same,Control Before AII,[1]; [4],185 mmhg
same,Response After AII,[1]; [4],195 mmhg
same,Average Change,[1]; [5],16 mmhg
same,Inhibition,[1]; [5],60%
same,Change,[1]; [5],22 mmhg and 10 mmhg
same,Control Before AII,[1]; [5],163 mmhg and 165 mmhg
same,Response After AII,[1]; [5],185 mmhg and 175 mmhg
same,Average Change,[1]; [6],15.5 mmhg
same,Inhibition,[1]; [6],61%
same,Change,[1]; [6],16 mmhg and 15 mmhg
same,Control Before AII,[1]; [6],170 mmhg
same,Response After AII,[1]; [6],186 mmhg and 185 mmhg
same,Average Change,[1]; [7],4.5 mmhg
same,Inhibition,[1]; [7],91%
same,Change,[1]; [7],9 mmhg and 0 mmhg
same,Control Before AII,[1]; [7],190 mmhg and 165 mmhg
same,Response After AII,[1]; [7],199 mmhg and 165 mmhg
same,Average Change,[1]; [8],14 mmhg
same,Inhibition,[1]; [8],73%
same,Change,[1]; [8],15 mmhg and 13 mmhg
same,Control Before AII,[1]; [8],175 mmhg and 157 mmhg
same,Response After AII,[1]; [8],190 mmhg and 170 mmhg
same,Average Change,[1]; [9],10 mmhg
same,Inhibition,[1]; [9],81%
same,Change,[1]; [9],10 mmhg
same,Control Before AII,[1]; [9],185 mmhg and 175 mmhg
same,Response After AII,[1]; [9],195 mmhg and 185 mmhg
same,Average Change,[1]; [10],20 mmhg
same,Inhibition,[1]; [10],62%
same,Change,[1]; [10],20 mmhg
same,Control Before AII,[1]; [10],180 mmhg and 165 mmhg
same,Response After AII,[1]; [10],200 mmhg and 185 mmhg
same,Average Change,[1]; [11],24.5 mmhg
same,Inhibition,[1]; [11],53%
same,Change,[1]; [11],24 mmhg and 25 mmhg
same,Control Before AII,[1]; [11],175 mmhg and 160 mmhg
same,Response After AII,[1]; [11],199 mmhg and 185 mmhg
"CCCCc1nc2ccc(C3CC(c4ccc(C)cc4)=NO3)cc2c(=O)n1Cc1ccc(-c2ccccc2-c2nnn[nH]2)cc1 (stereo not shown) [Example 23, 2-Butyl-6-[4,5-dihydro-3-(4-methylphenyl)-5-isoxazolyl]-3-[[2'-(lH-tetrazol-5-yl)[1,1'-biphenyl]-4-yl]methyl]-4(3H)-quinazolinone]",IC50,Angiotensin II Receptor,70 nM

# Reference: US5284853A, “Angiotensin II receptor blocking 2,3,6 substituted quinazolinones” (American Cyanamid Company, priority 1993, dated 1994)
